{"source": "patent US20260240851A1", "about": "“Treatment of Parkinson's Disease in a Patient Using a Glucocerebrosidase Activator” (BIAL - R&D Investments, S.A., priority 2023, published 2026)", "key": {"[1]": {"experiment": "LTI-291-003: safety and tolerability", "assay_type": "in vivo, human", "source_text": "(§1) This study was a Phase 1b, randomized, double-blind, placebo-controlled, multiple oral dose study of Compound A in 40 subjects (aged 40 to 80 years) with GBA-PD. Approximately 50% of the enrolled subjects had major (loss of 30%-50% total activity) mutations in GCase and 50% had polymorphism mutation (loss of 10%-20% of total activity) mutations in GCase. The objectives of this study were to investigate the safety, tolerability, and PK of multiple once-daily oral administration of Compound A and to explore the accompanying pharmacodynamic changes in subjects with GBA-PD with major and polymorphism mutations. Subjects received once-daily oral doses of 10 mg (n=10), 30 mg (n=10), or 60 mg (2×30 mg capsules) (n=10) Compound A or placebo (n=10) for 28 consecutive days."}, "[2]": {"experiment": "LTI-291-003 multiple dose study in GBA-PD: plasma and CSF pharmacokinetics", "assay_type": "in vivo, human", "conditions": "for Tmin / Tmax: median; for Kp at 4 h / Cmax / AUC(0-t) / Tmax: human, oral; for Kp at 4 h: CSF and plasma, after the 28th daily dose, read-out: CSF-to-plasma concentration ratio, mean (SD); for Cmax / AUC(0-t) / Tmax: plasma", "source_text": "as §1\nBlood samples for Compound A concentrations were collected up to 6 hours after the first and last doses. CSF samples for Compound A concentrations were taken before the first dose and 4 hours after the last dose for each dose level."}, "[3]": {"conditions": "10 mg daily, dose 28, GBA-PD, geometric mean"}, "[4]": {"conditions": "30 mg daily, dose 1, GBA-PD, geometric mean"}, "[5]": {"conditions": "30 mg daily, dose 28, GBA-PD, geometric mean"}, "[6]": {"conditions": "60 mg daily, dose 1, GBA-PD, geometric mean"}, "[7]": {"conditions": "60 mg daily, dose 28, GBA-PD, geometric mean"}}, "note": "Read-outs that look alike come from different tables or passages of the source."}
{"compound": "CCCCCO[C@H]1CC[C@H](NC(=O)c2cnn3c(C)cc(C)nc23)CC1", "note": "[Compound A, 5,7-dimethyl-N-((1S*,4S)-4-(pentyloxy)cyclohexyl)pyrazolo[1,5-a]pyrimidine-3-carboxamide]", "values": [{"measurement": "deaths, SAEs, severe AEs, discontinuations due to AEs", "setting": "[1]; 10-60 mg daily for 28 days, GBA-PD", "result": "No deaths, other SAEs, severe AEs, or discontinuations due to AEs"}, {"measurement": "vital signs, laboratory safety assessments, ECG parameters", "setting": "[1]; 28 days", "result": "no clinically significant safety observations"}, {"measurement": "AE back pain, patients", "setting": "[1]; all Compound A groups", "result": 13.3, "unit": "%"}, {"measurement": "AE fatigue, patients", "setting": "[1]; all Compound A groups", "result": 16.7, "unit": "%"}, {"measurement": "AE headache, subjects", "setting": "[1]; all Compound A groups", "result": 13.3, "unit": "%"}, {"measurement": "AE worsening of Parkinson's disease symptoms, subjects", "setting": "[1]; all Compound A groups", "result": 13.3, "unit": "%"}, {"measurement": "Cmax/dose", "setting": "[2]; 10 mg daily, dose 1, GBA-PD, geometric mean", "result": 25.4, "unit": "ng/mL/mg"}, {"measurement": "AUC0-last/dose", "setting": "[2]; 10 mg daily, dose 1, GBA-PD, geometric mean (% CV)", "result": "109 (32.8) ng · h/mL mg"}, {"measurement": "AUC0-last/dose", "setting": "[2]; [3]", "result": 252, "unit": "ng·h/mL/mg"}, {"measurement": "Cmax/dose", "setting": "[2]; [3]", "result": 52.0, "unit": "ng/mL/mg"}, {"measurement": "Cmin", "setting": "[2]; [3]", "result": 246, "unit": "ng/mL"}, {"measurement": "Tmin", "setting": "[2]; 10 mg daily, dose 28, GBA-PD", "result": 26.3, "unit": "h"}, {"measurement": "AUC0-last/dose", "setting": "[2]; [4]", "result": 76.8, "unit": "ng·h/mL/mg"}, {"measurement": "Cmax/dose", "setting": "[2]; [4]", "result": 18.7, "unit": "ng/mL/mg"}, {"measurement": "AUC0-last/dose", "setting": "[2]; [5]", "result": 241, "unit": "ng·h/mL/mg"}, {"measurement": "Cmax/dose", "setting": "[2]; [5]", "result": 47.9, "unit": "ng/mL/mg"}, {"measurement": "Cmin", "setting": "[2]; [5]", "result": 788, "unit": "ng/mL"}, {"measurement": "Tmin", "setting": "[2]; 30 mg daily, dose 28, GBA-PD", "result": 26.1, "unit": "h"}, {"measurement": "AUC0-last/dose", "setting": "[2]; [6]", "result": 102, "unit": "ng·h/mL/mg"}, {"measurement": "Cmax/dose", "setting": "[2]; [6]", "result": 25.5, "unit": "ng/mL/mg"}, {"measurement": "Cmax/dose", "setting": "[2]; [7]", "result": 46.6, "unit": "ng/mL/mg"}, {"measurement": "Cmin", "setting": "[2]; [7]", "result": 1370, "unit": "ng/mL"}, {"measurement": "AUC0-last/dose", "setting": "[2]; 60 mg daily, dose 28, GBA-PD, geometric mean (% CV)", "result": "234 (15.7) ng · h/mL mg"}, {"measurement": "Tmin", "setting": "[2]; 60 mg daily, dose 28, GBA-PD", "result": 26.0, "unit": "h"}, {"measurement": "total exposure (Cmax and AUC0-last) versus dose", "setting": "[2]; 10 to 60 mg, after 1st and 28th dose", "result": "increase in a dose proportional manner"}, {"measurement": "time of peak plasma concentrations (median)", "setting": "[2]; after the 1st and 28th daily dose", "result": 2.0, "unit": "h"}, {"measurement": "Kp at 4 h", "setting": "[2]; 10 mg", "result": 0.0113}, {"measurement": "Kp at 4 h", "setting": "[2]; 30 mg", "result": 0.0122}, {"measurement": "Kp at 4 h", "setting": "[2]; 60 mg", "result": 0.0115}, {"measurement": "Cmax", "setting": "[2]; 10 mg, 10 mg daily, dose 1, GBA-PD, geometric mean (% CV)", "result": 254, "unit": "ng/mL"}, {"measurement": "AUC(0-t)", "setting": "[2]; 10 mg, 10 mg daily, dose 1, GBA-PD, geometric mean, read-out: AUC0-6", "result": 1080, "unit": "ng·h/mL"}, {"measurement": "AUC(0-t)", "setting": "[2]; 10 mg, 10 mg daily, dose 1, GBA-PD, geometric mean, read-out: AUC0-last", "result": 1090, "unit": "ng·h/mL"}, {"measurement": "Cmax", "setting": "[2]; 10 mg, 10 mg daily, dose 28, GBA-PD, geometric mean", "result": 520, "unit": "ng/mL"}, {"measurement": "AUC(0-t)", "setting": "[2]; 10 mg, 10 mg daily, dose 28, GBA-PD, geometric mean, read-out: AUC0-6", "result": 2520, "unit": "ng·h/mL"}, {"measurement": "AUC(0-t)", "setting": "[2]; 10 mg, 10 mg daily, dose 28, GBA-PD, geometric mean, read-out: AUC0-last", "result": 2520, "unit": "ng·h/mL"}, {"measurement": "Cmax", "setting": "[2]; 30 mg, 30 mg daily, dose 1, GBA-PD, geometric mean (% CV)", "result": 561, "unit": "ng/mL"}, {"measurement": "AUC(0-t)", "setting": "[2]; 30 mg, 30 mg daily, dose 1, GBA-PD, geometric mean, read-out: AUC0-6", "result": 2300, "unit": "ng·h/mL"}, {"measurement": "AUC(0-t)", "setting": "[2]; 30 mg, 30 mg daily, dose 1, GBA-PD, geometric mean, read-out: AUC0-last", "result": 2300, "unit": "ng·h/mL"}, {"measurement": "Cmax", "setting": "[2]; 30 mg, 30 mg daily, dose 28, GBA-PD, geometric mean", "result": 1440, "unit": "ng/mL"}, {"measurement": "AUC(0-t)", "setting": "[2]; 30 mg, 30 mg daily, dose 28, GBA-PD, geometric mean, read-out: AUC0-6", "result": 7230, "unit": "ng·h/mL"}, {"measurement": "AUC(0-t)", "setting": "[2]; 30 mg, 30 mg daily, dose 28, GBA-PD, geometric mean, read-out: AUC0-last", "result": 7230, "unit": "ng·h/mL"}, {"measurement": "Cmax", "setting": "[2]; 60 mg, 60 mg daily, dose 1, GBA-PD, geometric mean", "result": 1530, "unit": "ng/mL"}, {"measurement": "AUC(0-t)", "setting": "[2]; 60 mg, 60 mg daily, dose 1, GBA-PD, geometric mean, read-out: AUC0-6", "result": 6080, "unit": "ng·h/mL"}, {"measurement": "AUC(0-t)", "setting": "[2]; 60 mg, 60 mg daily, dose 1, GBA-PD, geometric mean, read-out: AUC0-last", "result": 6100, "unit": "ng·h/mL"}, {"measurement": "Cmax", "setting": "[2]; 60 mg, 60 mg daily, dose 28, GBA-PD, geometric mean", "result": 2790, "unit": "ng/mL"}, {"measurement": "AUC(0-t)", "setting": "[2]; 60 mg, 60 mg daily, dose 28, GBA-PD, geometric mean, read-out: AUC0-6", "result": 14100, "unit": "ng·h/mL"}, {"measurement": "AUC(0-t)", "setting": "[2]; 60 mg, 60 mg daily, dose 28, GBA-PD, geometric mean, read-out: AUC0-last", "result": 14100, "unit": "ng·h/mL"}, {"measurement": "Tmax", "setting": "[2]; 10 mg daily, dose 1, GBA-PD", "result": 2, "unit": "h"}, {"measurement": "Tmax", "setting": "[2]; 30 mg daily, dose 1, GBA-PD", "result": 2, "unit": "h"}, {"measurement": "Tmax", "setting": "[2]; 60 mg daily, dose 1, GBA-PD", "result": 2, "unit": "h"}, {"measurement": "PK in healthy subjects versus subjects with GBA-PD", "setting": "[2]; in vivo", "result": "similar"}]}
